These results are taken from US20070141341A1, “Coating containing denatured aloe vera, for covering either chlorine-generating compositions or other hazardous chemicals and method for making” (priority 2005, published 2007).

This assay concerns E. coli. In words: Reductions of E. coli organisms.

SMILES strings stand for the structures.

Take `O=c1n(Cl)c(=O)n(Cl)c(=O)n1Cl` [Uncoated ACL, trichloroisocyanuric acid]: where the note is “after 5 minutes”, the “E. coli remaining after 5 minutes” value was determined as 0. Further, the “E. coli remaining after: ½ hour” value (after ½ hour) is given as “Slightly”.
